Experimental data published in patent US9029391B2 (priority 2011, dated 2015).
Read-outs that look alike come from different tables or passages of the source.

Tested on: HIV
Assay: MT4 Assay (anti-HIV activity)
Assay type: cell-based
Summary of the method: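 MT-4 cells (HTLV-1 transformed) were used for antiviral activity and cytotoxicity, run in parallel, with luminescence read by CellTiter-Glo 96 hours later. Percent inhibition was expressed against the no-compound control. IC50s came from 10-point curves of 3-4-fold serial dilutions spanning >1000-fold.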

[1] = Human immunodeficiency virus 1, 96 h, read-out: HIV MT4 Assay IC50, HTLV-1 transformed cell line MT-4, cell titer glo, 10 point dose response curve

Structure (SMILES) | IC50 [1] [µM] | IC50 (read-out: HIV MT4 Assay IC50, HTLV-1 transformed cell line MT-4, 96 hours, cell titer glo, 10 point dose response curve) [µM]
Cc1ccccc1-c1c(C(OC(C)(C)C)C(=O)O)n(C)c(=O)c2ccccc12 (stereo not drawn) [Example 71, 2-(tert-butoxy)-2-[2-methyl-4-(2-methylphenyl)-1-oxo-1,2-dihydroisoquinolin-3-yl]acetic acid] | 1.45 | 
Cc1c(-c2c(C(OC(C)(C)C)C(=O)O)n(C)c(=O)c3cc(OC(C)C)ccc23)ccc2c1CCCO2 (stereo not drawn) [Example 135, 2-(tert-butoxy)-2-[2-methyl-4-(5-methyl-3,4-dihydro-2H-1-benzopyran-6-yl)-1-oxo-7-(propan-2-yloxy)-1,2-dihydroisoquinolin-3-yl]acetic acid] | 0.14 | 
CC(=O)N1CCOc2ccc(-c3c(C(OC(C)(C)C)C(=O)O)n(C)c(=O)c4ccccc34)c(Cl)c21 (stereo not drawn) [Example 116, 2-[4-(4-acetyl-5-chloro-3,4-dihydro-2H-1,4-benzoxazin-6-yl)-2-methyl-1-oxo-1,2-dihydroisoquinolin-3-yl]-2-(tert-butoxy)acetic acid] | 33.2 | 
Cn1c(C(OC(C)(C)C)C(=O)O)c(-c2ccc3ncccc3c2)c2ccccc2c1=O (stereo not drawn) [Example 62, 2-(tert-butoxy)-2-[2-methyl-1-oxo-4-(quinolin-6-yl)-1,2-dihydroisoquinolin-3-yl]acetic acid] | 11.1 | 
Cc1ccc(-c2c(C(OC(C)(C)C)C(=O)O)n(C)c(=O)c3ccc(F)cc23)cc1C (stereo not drawn) [Example 56, 2-(tert-butoxy)-2-[4-(3,4-dimethylphenyl)-6-fluoro-2-methyl-1-oxo-1,2-dihydroisoquinolin-3-yl]acetic acid] | 1.68 | 
Cn1c(C(OC(C)(C)C)C(=O)O)c(-c2ccc(OC(F)(F)F)cc2)c2ccccc2c1=O (stereo not drawn) [Example 5, 2-(tert-butoxy)-2-{2-methyl-1-oxo-4-[4-(trifluoromethoxy)phenyl]-1,2-dihydroisoquinolin-3-yl}acetic acid] | 41.7 | 
COc1ccc(-c2c(C(OC(C)(C)C)C(=O)O)n(C)c(=O)c3ccccc23)cc1 (stereo not drawn) [Example 8, 2-(tert-butoxy)-2-[4-(4-methoxyphenyl)-2-methyl-1-oxo-1,2-dihydroisoquinolin-3-yl]acetic acid] | 1.3 | 
Cc1c(-c2c([C@H](OC(C)(C)C)C(=O)O)n(C)c(=O)c3cc(-c4cccc(F)c4)ccc23)cc(F)c2c1CCCO2 (atropisomer, axis not shown; (M)) [Example 210, (S)(M)-2-(tert-butoxy)-2-(4-(8-fluoro-5-methylchroman-6-yl)-7-(3-fluorophenyl)-2-methyl-1-oxo-1,2-dihydroisoquinolin-3-yl)acetic acid] | 0.01 | 
CCn1c(C(OC(C)(C)C)C(=O)O)c(-c2ccc3c(c2)CCCO3)c2ccccc2c1=O (stereo not drawn) [Example 65, 2-(tert-butoxy)-2-[4-(3,4-dihydro-2H-1-benzopyran-6-yl)-2-ethyl-1-oxo-1,2-dihydroisoquinolin-3-yl]acetic acid] | 1.46 | 
Cn1c(C(OC(C)(C)C)C(=O)O)c(-c2ccc3ncsc3c2)c2ccccc2c1=O (stereo not drawn) [Example 153, 2-(4-(benzo[d]thiazol-6-yl)-2-methyl-1-oxo-1,2-dihydroisoquinolin-3-yl)-2-(tert-butoxy)acetic acid] | 3.88 | 
Cn1c(C(OC(C)(C)C)C(=O)O)c(-c2ccc(C(F)(F)F)cc2)c2ccccc2c1=O (stereo not drawn) [Example 17, 2-(tert-butoxy)-2-{2-methyl-1-oxo-4-[4-(trifluoromethyl)phenyl]-1,2-dihydroisoquinolin-3-yl}acetic acid] | 18.4 | 
Cc1c(-c2c(C(OC(C)(C)C)C(=O)O)n(C)c(=O)c3cc(OCc4ccc(F)cc4)ccc23)cc(F)c2c1CCCO2 (stereo not drawn) [Example 145, 2-(tert-butoxy)-2-[4-(8-fluoro-5-methyl-3,4-dihydro-2H-1-benzopyran-6-yl)-7-[(4-fluorophenyl)methoxy]-2-methyl-1-oxo-1,2-dihydroisoquinolin-3-yl]acetic acid] | 0.11 | 
Cn1c(C(OC(C)(C)C)C(=O)O)c(-c2ccc(F)c(F)c2)c2ccccc2c1=O (stereo not drawn) [Example 38, 2-(tert-butoxy)-2-[4-(3,4-difluorophenyl)-2-methyl-1-oxo-1,2-dihydroisoquinolin-3-yl]acetic acid] | 2.41 | 
Cc1c(-c2c([C@H](OC(C)(C)C)C(=O)O)n(C)c(=O)c3cc(-c4cn[nH]c4)ccc23)cc(F)c2c1CCCO2 (atropisomer, axis not shown; (M)) [Example 197, (2S)(M)-[(1,1-dimethylethyl)oxy][4-(8-fluoro-5-methyl-3,4-dihydro-2H-chromen-6-yl)-2-methyl-1-oxo-7-(1H-pyrazol-4-yl)-1,2-dihydro-3-isoquinolinyl]ethanoic acid] | 1.46 | 
CCc1ccc(-c2c(C(OC(C)(C)C)C(=O)O)n(C)c(=O)c3ccccc23)cc1 (stereo not drawn) [Example 47, 2-(tert-butoxy)-2-[4-(4-ethylphenyl)-2-methyl-1-oxo-1,2-dihydroisoquinolin-3-yl]acetic acid] | 1.85 | 
Cc1ccc(-c2c(C(OC(C)(C)C)C(=O)O)n(C)c(=O)c3cc(C(N)=O)ccc23)cc1C (stereo not drawn) [Example 178, [7-(aminocarbonyl)-4-(3,4-dimethylphenyl)-2-methyl-1-oxo-1,2-dihydro-3-isoquinolinyl][(1,1-dimethylethyl)oxy]acetic acid] | 50 | 
Cc1c(-c2c([C@@H](OC(C)(C)C)C(=O)O)n(C)c(=O)c3ccccc23)cc(F)c2c1CCCO2 [Example 160, (2R)-2-(tert-butoxy)-2-[4-(8-fluoro-5-methyl-3,4-dihydro-2H-1-benzopyran-6-yl)-2-methyl-1-oxo-1,2-dihydroisoquinolin-3-yl]acetic acid] |  | 41.6
Cc1c(-c2c([C@H](OC(C)(C)C)C(=O)O)n(C)c(=O)c3cc(OCc4ccc(F)c(F)c4)ccc23)ccc2c1CCCO2 [Example 108, (2S)-2-(tert-butoxy)-2-{7-[(3,4-difluorophenyl)methoxy]-2-methyl-4-(5-methyl-3,4-dihydro-2H-1-benzopyran-6-yl)-1-oxo-1,2-dihydroisoquinolin-3-yl}acetic acid] | 0.03 | 
Cc1c(-c2c(C(OC(C)(C)C)C(=O)O)n(C)c(=O)c3cc(OCc4ccc(F)cc4)ccc23)ccc2c1CCCO2 (stereo not drawn) [Example 93, 2-(tert-butoxy)-2-{7-[(4-fluorophenyl)methoxy]-2-methyl-4-(5-methyl-3,4-dihydro-2H-1-benzopyran-6-yl)-1-oxo-1,2-dihydroisoquinolin-3-yl}acetic acid] | 0.08 | 
Cc1c(-c2c(C(OC(C)(C)C)C(=O)O)n(C)c(=O)c3cc(OCc4ccccn4)ccc23)ccc2c1CCCO2 (stereo not drawn) [Example 129, 2-(tert-butoxy)-2-[2-methyl-4-(5-methyl-3,4-dihydro-2H-1-benzopyran-6-yl)-1-oxo-7-(pyridin-2-ylmethoxy)-1,2-dihydroisoquinolin-3-yl]acetic acid] | 0.2 | 
Cc1ccc2c(-c3cc(F)c4c(c3C)CCCO4)c(C(OC(C)(C)C)C(=O)O)n(C)c(=O)c2c1 (stereo not drawn) [Example 124, 2-(tert-butoxy)-2-[4-(8-fluoro-5-methyl-3,4-dihydro-2H-1-benzopyran-6-yl)-2,7-dimethyl-1-oxo-1,2-dihydroisoquinolin-3-yl]acetic acid] | 0.13 | 
Cc1ccc2c(-c3cc(F)c4c(c3C)CCCO4)c([C@H](OC(C)(C)C)C(=O)O)n(C)c(=O)c2c1 [Example 131, (2S)-2-(tert-butoxy)-2-[4-(8-fluoro-5-methyl-3,4-dihydro-2H-1-benzopyran-6-yl)-2,7-dimethyl-1-oxo-1,2-dihydroisoquinolin-3-yl]acetic acid] | 0.02 | 
Cc1c(-c2c(C(OC(C)(C)C)C(=O)O)n(C)c(=O)c3cc(OCc4cccs4)ccc23)ccc2c1CCCO2 (stereo not drawn) [Example 142, 2-(tert-butoxy)-2-[2-methyl-4-(5-methyl-3,4-dihydro-2H-1-benzopyran-6-yl)-1-oxo-7-(thiophen-2-ylmethoxy)-1,2-dihydroisoquinolin-3-yl]acetic acid] | 0.03 | 
COc1cc(-c2c(C(OC(C)(C)C)C(=O)O)n(C)c(=O)c3ccccc23)cc(OC)c1OC (stereo not drawn) [Example 27, 2-(tert-butoxy)-2-[2-methyl-1-oxo-4-(3,4,5-trimethoxyphenyl)-1,2-dihydroisoquinolin-3-yl]acetic acid] | 50 | 
Cc1c(-c2c(C(OC(C)(C)C)C(=O)O)n(C)c(=O)c3cc(OCc4ccc(F)c(F)c4)ccc23)ccc2c1CCCO2 (stereo not drawn) [Example 138, 2-(tert-butoxy)-2-{7-[(3,4-difluorophenyl)methoxy]-2-methyl-4-(5-methyl-3,4-dihydro-2H-1-benzopyran-6-yl)-1-oxo-1,2-dihydroisoquinolin-3-yl}acetic acid] | 0.07 | 
Cc1ccc2c(-c3ccc4c(c3C)CCCO4)c(C(OC(C)(C)C)C(=O)O)n(C)c(=O)c2c1 (stereo not drawn) [Example 67, 2-(tert-butoxy)-2-[2,7-dimethyl-4-(5-methyl-3,4-dihydro-2H-1-benzopyran-6-yl)-1-oxo-1,2-dihydroisoquinolin-3-yl]acetic acid] | 0.12 | 
Cc1ccc(-c2c([C@H](OC(C)(C)C)C(=O)O)n(C)c(=O)c3ccccc23)cc1C [Example 3, (S)-2-(tert-butoxy)-2-(4-(3,4-dimethylphenyl)-2-methyl-1-oxo-1,2-dihydroisoquinolin-3-yl)acetic acid] | 0.44 | 
Cn1c(C(OC(C)(C)C)C(=O)O)c(-c2ccc3c(c2)CCO3)c2ccccc2c1=O (stereo not drawn) [Example 63, 2-(tert-butoxy)-2-[4-(2,3-dihydro-1-benzofuran-5-yl)-2-methyl-1-oxo-1,2-dihydroisoquinolin-3-yl]acetic acid] | 1.69 | 
CCCOc1ccc(-c2c(C(OC(C)(C)C)C(=O)O)n(C)c(=O)c3ccccc23)cc1 (stereo not drawn) [Example 44, 2-(tert-butoxy)-2-[2-methyl-1-oxo-4-(4-propoxyphenyl)-1,2-dihydroisoquinolin-3-yl]acetic acid] | 38.9 | 
Cn1c(C(OC(C)(C)C)C(=O)O)c(-c2ccc(F)cc2F)c2ccccc2c1=O (stereo not drawn) [Example 46, 2-(tert-butoxy)-2-[4-(2,4-difluorophenyl)-2-methyl-1-oxo-1,2-dihydroisoquinolin-3-yl]acetic acid] | 1.57 | 
